This is an account of results in patent publication US9504421B2, “Moisture indicating hydrophilic polyurethane” (ACTIVE DEVICE DEVELOPMENT LIMITED, priority 2012, dated 2016).

The series is described as follows: Magnitude of colour change (light absorbance) dry vs damp for colour-formers dip-coated on MDI and TDI HPU foam (Example 25). As to conditions: for Enhancement: light absorbance damp versus dry.

Procedure: A range of colour-formers were dip-coated onto MDI- and TDI-based HPU foams using the following method:
A solution of colour-former in acetone (5 mg/ml) was prepared. A 20×20×5 mm square sample of a TDI-based or MDI-based HPU foam was fully immersed in the colour-former solution (20 ml), taking care to avoid air-locking within the foam. The sample was immediately removed from the solution and excess solution removed with light squeezing followed by hand compression between layers of absorbent tissue.
The sample was oven dried at 70° C. for 10 minutes, resulting in an off-white sample in all cases.
The light absorbance of the resulting samples was recorded in the dry state at the wavelength of maximum light absorbance (when moistened). Each sample was individually fully wet out in deionised water and dried to dampness between absorbent tissue prior to immediate determination of light absorbance at the aforementioned wavelength.

For `CCN(CC)c1ccc2c(c1)Oc1ccc(N(Cc3ccccc3)Cc3ccccc3)cc1C21OC(=O)c2ccccc21` (stereo not drawn) [WinCon Green, 2-dibenzylamino-6-diethylaminofluoran], the Enhancement runs as follows: (MDI HPU foam) 5.7; (TDI HPU foam) 7.0.
For `CN(C)c1ccc(C2(c3ccc(N(C)C)cc3)OC(=O)c3cc(N(C)C)ccc32)cc1` [Crystal Violet Lactone, crystal violet lactone] the same measures were 13.4 and 14.8.
For `CCN(CCC(C)C)c1ccc2c(c1)Oc1cc(C)c(Nc3ccccc3)cc1C21OC(=O)c2ccccc21` (stereo not drawn) [WinCon-205, 6-(N-ethyl, N-isopentylamino)-3-methyl-2-phenylaminofluoran] the same measures were 6.3 and 10.3.
In the case of `CCN(CC)c1ccc(-c2nc(Oc3ccc(C(C)(C)c4ccc(Oc5nc(-c6ccc(N(CC)CC)cc6)nc6ccccc56)cc4)cc3)c3ccccc3n2)cc1` [Pergascript Yellow I 3R, 4,4′-[(1-methylethylidene)bis(4,1-phenyleneoxy-4,2-quinazolinediyl)]bis[N,N-diethyl]benzamine], the Enhancement (MDI HPU foam) worked out at 1.1 and the Enhancement (TDI HPU foam) is 0.7. Besides, the “suitability to function as colour-forming indicator” value (on MDI or TDI HPU foams at the loading concentrations employed, damp absorbance versus 0.1 absorbance unit visibility limit) is “not well-suited”.
Consider `CCN(CC)c1ccc2c(c1)Oc1cc(C)c(Nc3ccccc3)cc1C21OC(=O)c2ccccc21` (stereo not drawn) [WinCon-1, 6-diethylamino-3-methyl-2-phenylaminofluoran], for which the Enhancement was 6.2 (MDI HPU foam) and 6.8 (TDI HPU foam).
For `CCN(CC)c1ccc2c(c1)Oc1cc(C)c(Nc3ccc(C)cc3C)cc1C21OC(=O)c2ccccc21` (stereo not drawn) [WinCon-15, 2-(2,4-dimethylphenylamino)-3-methyl-6-diethylaminofluoran] the same measures were 6.8 and 9.3.
Turning to `CCCCN(CCCC)c1ccc2c(c1)Oc1cc(C)c(Nc3ccccc3)cc1C21OC(=O)c2ccccc21` (stereo not drawn) [WinCon-2, 6-dibutylamino-3-methyl-2-phenylaminofluoran], the Enhancement is 5.7 (MDI HPU foam) and 8.1 (TDI HPU foam).
